{
  "source": "patent US6710056B2",
  "about": "“Amidinophenylpyruvic acid derivatives” (Ajinomoto Co., Inc., priority 1999, dated 2004)",
  "key": {"[1]": {"biological_target": "T1, activated human blood coagulation factor VII (Homo sapiens, UniProt P08709)", "T1 construct": "purchased Enzyme Research Laboratories Ltd. (FVIIa); American Diagnostica Laboratories Ltd. (tissue factor)", "T1 sequence (P08709 213-466 limits assumed)": "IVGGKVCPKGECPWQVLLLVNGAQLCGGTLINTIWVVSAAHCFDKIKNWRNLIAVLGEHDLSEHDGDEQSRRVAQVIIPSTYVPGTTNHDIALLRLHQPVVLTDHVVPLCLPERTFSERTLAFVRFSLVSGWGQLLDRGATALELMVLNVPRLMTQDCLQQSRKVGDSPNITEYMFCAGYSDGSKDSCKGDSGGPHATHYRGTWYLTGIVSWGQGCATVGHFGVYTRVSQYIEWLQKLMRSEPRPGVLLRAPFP", "T1 sequence (P08709 61-212 limits assumed)": "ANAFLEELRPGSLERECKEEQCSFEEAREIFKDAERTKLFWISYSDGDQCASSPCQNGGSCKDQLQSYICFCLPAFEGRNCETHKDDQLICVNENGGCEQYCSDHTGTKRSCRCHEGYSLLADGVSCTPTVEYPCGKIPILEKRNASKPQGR", "T1 sequence (P13726 33-295 partner)": "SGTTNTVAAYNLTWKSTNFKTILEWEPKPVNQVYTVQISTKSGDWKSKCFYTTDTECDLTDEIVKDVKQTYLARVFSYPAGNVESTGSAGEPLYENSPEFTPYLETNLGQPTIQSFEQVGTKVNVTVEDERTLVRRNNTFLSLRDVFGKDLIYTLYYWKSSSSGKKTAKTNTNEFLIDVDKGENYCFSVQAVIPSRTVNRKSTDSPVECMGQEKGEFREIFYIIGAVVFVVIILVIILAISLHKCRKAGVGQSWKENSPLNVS", "test": "Determination of antagonistic activity to activated human blood coagulation factor VII", "assay_type": "biochemical", "settings": "FVIIa mixed with tissue factor, substrate S-2288, pH 7.4, initial velocity; read-out: Antagonistic activity to activated blood coagulation factor VII (pIC50 ) (converted)", "description": "Determination of antagonistic activity to activated human blood coagulation factor VII:\n100 nM solution of activated human blood coagulation factor VII (Enzyme Research Laboratories Ltd.) in pH 7.4 tris hydrochloride buffer solution was mixed with 100 nM solution of a tissue factor (American Diagnostica Laboratories Ltd.) in pH 7.4 tris hydrochloride buffer solution in equal amounts, and the obtained mixture was left to stand at room temperature for 30 minutes. 50 μl of 50 mM tris hydrochloride buffer solution having a pH adjusted to 7.4 was added to 5 μl of an aqueous solution of a compound to be tested. Then 10 μl of the previously prepared mixture of 50 nM of each of the solutions of activated human blood coagulation factor VII and tissue factor was added to the obtained mixture, and they were incubated at room temperature for 10 minutes. Then 25 μl of 3.2 mM solution of D-isoleucyl-L-prolyl-L-arginyl-P-nitroanilide hydrochloride (S-2288, Daiichi Pure Chemicals Co., Ltd.) in pH 7.4 tris hydrochloride buffer was added to the obtained mixture. The absorbance was determined and the initial reaction velocity was calculated. A control was prepared by using 5 μl of tris hydrochloride buffer adjusted to pH 7.4 in place of the solution of the compound to be tested. The absorbance was determined with MICROPLATE READER Model 3550-UV (BIO RAD) at a wavelength of 405 nm at intervals of […]. The negative logarithm (pIC50) of the concentration of the sample compound for the 50% inhibition of the activity (initial velocity) of the activated blood coagulation factor VII was determined, and it was employed as the index of the antagonistic activity to the activated blood coagulation factor VII."}, "[2]": {"biological_target": "T2, human thrombin (Homo sapiens, UniProt P00734)", "T2 construct": "solution of human thrombin (SIGMA Co. Ltd.); purchased SIGMA Co. Ltd", "test": "Determination of antagonistic activity to human thrombin", "assay_type": "biochemical", "settings": "substrate S-2238, pH 8.4, initial velocity, read-out: Antagonistic activity to thrombin (pIC50) (converted)", "description": "(2) Determination of Antagonistic Activity to Human Thrombin:\n130 μl of 100 mM tris hydrochloride buffer adjusted at pH 8.4 was added to 10 μl of an aqueous solution of a sample compound having antagonistic activity to human thrombin. Then 10 μl of a solution of human thrombin (SIGMA Co. Ltd.) adjusted to 2 units/ml with pH 8.4 tris hydrochloride buffer was added to the obtained mixture, and they were incubated at room temperature for 10 minutes. 50 μl of a 0.4 mM solution of D-phenylalanyl-L-pipecolyl-L-arginyl-P-nitroanilide dihydrochloride (S-2238, Daiichi Pure Chemicals Co., Ltd.) in pH 8.4 tris hydrochloride buffer was added to the obtained mixture. The absorbance was determined and the initial reaction velocity was calculated. A control was prepared by using 10 μl of tris hydrochloride buffer adjusted to pH 8.4 in place of the solution of the compound to be tested. The absorbance was determined with MICROPLATE READER Model 3550-UV (BIO RAD) at a wavelength of 405 nm at intervals of 15 seconds for 6 minutes. The negative logarithm (pIC50) of the concentration of the sample compound for the 50% inhibition of the activity (initial velocity) of thrombin was determined, and it was employed as the index of the antagonistic activity to thrombin."}},
  "note": "Where a name gives a salt, the structure may show the parent alone.",
  "data": [
    {"smiles": "N=C(N)c1ccc(CC(=O)C(=O)O)c(OC[C@@H](CCC(=O)O)NC(=O)c2ccc3nc(N)ccc3c2)c1", "note": "[Compound of Ex. 1, (4R)-4-[(2-Aminoquinoline-6-carbonyl)amino]-5-[5-amidino-2-(2-carboxy-2-oxoethyl)phenoxy]pentanoic acid bistrifluoroacetate]", "values": [
      {"measurement": "IC50", "setting": "[1]", "value": 126, "unit": "nM"},
      {"measurement": "IC50", "setting": "[2]", "value": "> 100000", "unit": "nM"}
    ]},
    {"smiles": "N=C(N)c1ccc(CC(=O)C(=O)O)c(OCCNC(=O)c2ccc3nc(N)ccc3c2)c1", "note": "[Compound of Ex. 2, 3-[4-Amidino-2-[2-(2-aminoquinoline-6-carbonyl)aminoethoxy]phenyl]-2-oxopropionic acid bistrifluoroacetate]", "values": [
      {"measurement": "IC50", "setting": "[1]", "value": 316, "unit": "nM"},
      {"measurement": "IC50", "setting": "[2]", "value": 31600, "unit": "nM"}
    ]},
    {"smiles": "Cc1nc2ccc(C(=O)N[C@H](CCC(=O)O)COc3cc(C(=N)N)ccc3CC(=O)C(=O)O)cc2[nH]1", "note": "[Compound of Ex. 4, (4R)-4-[(2-Methylbenzimidazole-5-carbonyl)amino]-5-[5-amidino-2-(2-carboxy-2-oxoethyl)phenoxy]pentanoic acid bistrifluoroacetate]", "values": [
      {"measurement": "IC50", "setting": "[1]", "value": 200, "unit": "nM"},
      {"measurement": "IC50", "setting": "[2]", "value": "> 100000", "unit": "nM"}
    ]},
    {"smiles": "N=C(N)c1ccc(-c2cccc(C(=O)N[C@H](CCC(=O)O)COc3cc(C(=N)N)ccc3CC(=O)C(=O)O)c2)cc1", "note": "[Compound of Ex. 13, (4R)-4-[[3-(4-Amidinophenyl)benzoyl]amino]-5-[5-amidino-2-(2-carboxy-2-oxoethyl)phenoxy]pentanoic acid bistrifluoroacetate]", "values": [
      {"measurement": "IC50", "setting": "[1]", "value": 100, "unit": "nM"},
      {"measurement": "IC50", "setting": "[2]", "value": 7940, "unit": "nM"}
    ]},
    {"smiles": "N=C(N)Nc1ccc(C(=O)N[C@H](CCC(=O)O)COc2cc(C(=N)N)ccc2CC(=O)C(=O)O)cc1", "note": "[Compound of Ex. 23, (4R)-4-[(4-Guanidinobenzoyl)amino]-5-[5-amidino-2-(2-carboxy-2-oxoethyl)phenoxy]pentanoic acid bistrifluoroacetate]", "values": [
      {"measurement": "IC50", "setting": "[1]", "value": 251, "unit": "nM"},
      {"measurement": "IC50", "setting": "[2]", "value": "> 100000", "unit": "nM"}
    ]},
    {"smiles": "COc1ccc(-c2ccccc2)cc1C(=O)N[C@H](CCC(=O)O)COc1cc(C(=N)N)ccc1CC(=O)C(=O)O", "note": "[Compound of Ex. 27, (4R)-4-(2-Methoxy-5-phenylbenzoylamino)-5-[5-amidino-2-(2-carboxy-2-oxoethyl)phenoxy]pentanoic acid trifluoroacetate]", "values": [
      {"measurement": "IC50", "setting": "[1]", "value": 50.1, "unit": "nM"}
    ]},
    {"smiles": "N=C(N)c1ccc(CC(=O)C(=O)O)c(OC[C@@H](CCC(=O)O)NC(=O)c2ccc3nc(N)sc3c2)c1", "note": "[Compound of Ex. 28, (4R)-4-[(2-Aminobenzothiazole-6-carbonyl)amino]-5-[5-amidino-2-(2-carboxy-2-oxoethyl)phenoxy]pentanoic acid trifluoroacetate]", "values": [
      {"measurement": "IC50", "setting": "[1]", "value": 5.01, "unit": "nM"},
      {"measurement": "IC50", "setting": "[2]", "value": "> 100000", "unit": "nM"}
    ]},
    {"smiles": "N=C(N)c1ccc(CC(=O)C(=O)O)c(OCCNC(=O)c2ccc3nc(N)sc3c2)c1", "note": "[Compound of Ex. 39, 3-[4-Amidino-2-[2-(2-amino-benzothiazole-6-carbonyl)aminoethoxy]phenyl]-2-oxo-propionic acid trifluoroacetate]", "values": [
      {"measurement": "IC50", "setting": "[1]", "value": 20, "unit": "nM"},
      {"measurement": "IC50", "setting": "[2]", "value": 39800, "unit": "nM"}
    ]},
    {"smiles": "N=C(N)c1ccc(CC(=O)C(=O)O)c(OC[C@@H](CCC(=O)O)NC(=O)c2cc3c(cc2Br)CCO3)c1", "note": "[Compound of Ex. 45, (4R)-4-[(5-Bromo-2,3-dihydrobenzo[b]furan-6-carbonyl)amino]-5-[5-amidino-2-(2-carboxy-2-oxoethyl)phenoxy]pentanoic acid trifluoroacetate]", "values": [
      {"measurement": "IC50", "setting": "[1]", "value": 100, "unit": "nM"}
    ]}
  ]
}
